Laboratory results as given in patent US10407414B2, “Mannose derivatives for treating bacterial infections” (priority 2015, dated 2019).

System: bacterial strain LF82 binding to the glycoprotein BSA-(Mannose)3 (FimH antagonists)
Test: Bacterial Binding Assay (BBA)
Type: cell-based, Escherichia coli
Details: read-out: Bacterial Binding Assay IC50 ± SEM
Outline: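 Luciferase-expressing E. coli LF82, grown overnight at 37 °C without shaking, added as 2×10^8 bacteria/mL suspension with compound in BSA/D-PBS binding buffer. Wells were coated with 0.5–2 μg/mL BSA-(Man)3 and BSA-blocked, with 40–75 min binding at room temperature. After washing, adherent bacteria were read by luciferase luminescence and IC50 derived.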

SMILES	IC50
Cc1cc(=O)n(C)cc1-c1cc(C#C[C@H]2O[C@H](CO)[C@@H](O)[C@H](O)[C@@H]2O)c2[nH]ncc2c1 [Compound 76, 1,4-dimethyl-5-[7-[2-[(2R,3S,4R,5S,6R)-3,4,5-trihydroxy-6-(hydroxymethyl)tetrahydropyran-2-yl]ethynyl]-1H-indazol-5-yl]pyridin-2-one]	0.3 ± 0.09 nM
COc1ccc(Cn2cc3cc(Br)cc(C#C[C@H]4O[C@H](CO)[C@@H](O)[C@H](O)[C@@H]4O)c3n2)cc1 [Compound 17, (2R,3S,4R,5S,6R)-2-[2-[5-bromo-2-[(4-methoxyphenyl)methyl]indazol-7-yl]ethynyl]-6-(hydroxymethyl)tetrahydropyran-3,4,5-triol]	46 ± 14 nM
OCC#Cc1cc(C#C[C@H]2O[C@H](CO)[C@@H](O)[C@H](O)[C@@H]2O)c2[nH]ncc2c1 [Compound 48, (2R,3S,4R,5S,6R)-2-(hydroxymethyl)-6-[2-[5-(3-hydroxyprop-1-ynyl)-1H-indazol-7-yl]ethynyl]tetrahydropyran-3,4,5-triol]	9 ± 0.7 nM
NC1(C#Cc2cc(C#C[C@H]3O[C@H](CO)[C@@H](O)[C@H](O)[C@@H]3O)c3[nH]ncc3c2)CCCCC1 [Compound 50]	9 ± 1 nM
O=c1[nH]c2cc(Cl)cc(C#C[C@H]3O[C@H](CO)[C@@H](O)[C@H](O)[C@@H]3O)c2[nH]1 [Compound 12, 6-chloro-4-[2-[(2R,3S,4R,5S,6R)-3,4,5-trihydroxy-6-(hydroxymethyl)tetrahydropyran-2-yl]ethynyl]-1,3-dihydrobenzimidazol-2-one]	16 ± 6 nM
COc1ccc(-c2cc(C#C[C@H]3O[C@H](CO)[C@@H](O)[C@H](O)[C@@H]3O)c3[nH]ncc3c2)cn1 [Compound 73, (2R,3S,4R,5S,6R)-2-(hydroxymethyl)-6-[2-[5-(6-methoxy-3-pyridyl)-1H-indazol-7-yl]ethynyl]tetrahydropyran-3,4,5-triol]	0.5 ± 0.09 nM
CCc1ccc(/C=C/c2cc(C#C[C@H]3O[C@H](CO)[C@@H](O)[C@H](O)[C@@H]3O)c3[nH]ncc3c2)cc1 [Compound 69, (2R,3S,4R,5S,6R)-2-[2-[5-[(E)-2-(4-ethylphenyl)vinyl]-1H-indazol-7-yl]ethynyl]-6-(hydroxymethyl)tetrahydropyran-3,4,5-triol]	13 ± 9 nM
CCCN(C)C(=O)c1cc(C#C[C@H]2O[C@H](CO)[C@@H](O)[C@H](O)[C@@H]2O)c2[nH]ncc2c1 [Compound 65, N-methyl-N-propyl-7-[2-[(2R,3S,4R,5S,6R)-3,4,5-trihydroxy-6-(hydroxymethyl)tetrahydropyran-2-yl]ethynyl]-1H-indazole-5-carboxamide]	0.8 ± 0.1 nM
Cc1ccc(C#N)cc1-c1cc(C#C[C@H]2O[C@H](CO)[C@@H](O)[C@H](O)[C@@H]2O)c2[nH]ncc2c1 [Compound 89, 4-methyl-3-[7-[2-[(2R,3S,4R,5S,6R)-3,4,5-trihydroxy-6-(hydroxymethyl)tetrahydropyran-2-yl]ethynyl]-1H-indazol-5-yl]benzonitrile]	0.5 ± 0.04 nM
CN1CC=C(c2cc(C#C[C@H]3O[C@H](CO)[C@@H](O)[C@H](O)[C@@H]3O)c3[nH]ncc3c2)CC1 [Compound 67, (2R,3S,4R,5S,6R)-2-(hydroxymethyl)-6-[2-[5-(1-methyl-3,6-dihydro-2H-pyridin-4-yl)-1H-indazol-7-yl]ethynyl]tetrahydropyran-3,4,5-triol]	2 ± 0.9 nM
CNC(=O)c1cc(C#C[C@H]2O[C@H](CO)[C@@H](O)[C@H](O)[C@@H]2O)c2[nH]ncc2c1 [Compound 62, N-methyl-7-[2-[(2R,3S,4R,5S,6R)-3,4,5-trihydroxy-6-(hydroxymethyl)tetrahydropyran-2-yl]ethynyl]-1H-indazole-5-carboxamide]	34 ± 20 nM
OC[C@H]1O[C@H](C#Cc2cc(-c3cccnc3)cc3cn[nH]c23)[C@@H](O)[C@@H](O)[C@@H]1O [Compound 27, (2R,3S,4R,5S,6R)-2-(hydroxymethyl)-6-[2-[5-(3-pyridyl)-1H-indazol-7-yl]ethynyl]tetrahydropyran-3,4,5-triol]	0.2 ± 0.03 nM
OC[C@H]1O[C@H](C#Cc2cc(-c3cc(F)ccc3F)cc3cn[nH]c23)[C@@H](O)[C@@H](O)[C@@H]1O [Compound 86, (2R,3S,4R,5S,6R)-2-[2-[5-(2,5-difluorophenyl)-1H-indazol-7-yl]ethynyl]-6-(hydroxymethyl)tetrahydropyran-3,4,5-triol]	1 ± 0.2 nM
OC[C@H]1O[C@H](C#Cc2cc(-c3ccc4nccn4c3)cc3cn[nH]c23)[C@@H](O)[C@@H](O)[C@@H]1O [Compound 32, (2R,3S,4R,5S,6R)-2-(hydroxymethyl)-6-[2-(5-imidazo[1,2-a]pyridin-6-yl-1H-indazol-7-yl)ethynyl]tetrahydropyran-3,4,5-triol]	0.6 ± 0.005 nM
OC[C@H]1O[C@H](C#Cc2cc(C#Cc3cccc(O)c3)cc3cn[nH]c23)[C@@H](O)[C@@H](O)[C@@H]1O [Compound 47, (2R,3S,4R,5S,6R)-2-(hydroxymethyl)-6-[2-[5-[2-(3-hydroxyphenyl)ethynyl]-1H-indazol-7-yl]ethynyl]tetrahydropyran-3,4,5-triol]	12 ± 6 nM
CC(C)(C)C#Cc1cc(C#C[C@H]2O[C@H](CO)[C@@H](O)[C@H](O)[C@@H]2O)c2[nH]ncc2c1 [Compound 44, (2R,3S,4R,5S,6R)-2-[2-[5-(3,3-dimethylbut-1-ynyl)-1H-indazol-7-yl]ethynyl]-6-(hydroxymethyl)tetrahydropyran-3,4,5-triol]	5 ± 0.5 nM
OC[C@H]1O[C@H](C#Cc2cccc3nn[nH]c23)[C@@H](O)[C@@H](O)[C@@H]1O [Compound 8, (2R,3S,4R,5S,6R)-2-[2-(3H-benzotriazol-4-yl)ethynyl]-6-(hydroxymethyl)tetrahydropyran-3,4,5-triol]	180 ± 40 nM
OC[C@H]1O[C@H](C#Cc2cc(-c3ccccc3)cc3cn[nH]c23)[C@@H](O)[C@@H](O)[C@@H]1O [Compound 25, (2R,3S,4R,5S,6R)-2-(hydroxymethyl)-6-[2-(5-phenyl-1H-indazol-7-yl)ethynyl]tetrahydropyran-3,4,5-triol]	0.4 ± 0.04 nM
OC[C@H]1O[C@H](C#Cc2cc(-c3ccc4cc[nH]c4c3)cc3cn[nH]c23)[C@@H](O)[C@@H](O)[C@@H]1O [Compound 40, (2R,3S,4R,5S,6R)-2-(hydroxymethyl)-6-[2-[5-(1H-indol-6-yl)-1H-indazol-7-yl]ethynyl]tetrahydropyran-3,4,5-triol]	1 ± 0.3 nM
CNC(=O)c1cc(-c2cc(C#C[C@H]3O[C@H](CO)[C@@H](O)[C@H](O)[C@@H]3O)c3[nH]ncc3c2)ccn1 [Compound 92, N-methyl-4-[7-[2-[(2R,3S,4R,5S,6R)-3,4,5-trihydroxy-6-(hydroxymethyl)tetrahydropyran-2-yl]ethynyl]-1H-indazol-5-yl]pyridine-2-carboxamide]	1 nM
CNC(=O)c1cncc(-c2cc(C#C[C@H]3O[C@H](CO)[C@@H](O)[C@H](O)[C@@H]3O)c3[nH]ncc3c2)c1 [Compound 42, N-methyl-5-[7-[2-[(2R,3S,4R,5S,6R)-3,4,5-trihydroxy-6-(hydroxymethyl)tetrahydropyran-2-yl]ethynyl]-1H-indazol-5-yl]pyridine-3-carboxamide]	0.6 ± 0.2 nM
Cc1cc(-c2cc(C#C[C@H]3O[C@H](CO)[C@@H](O)[C@H](O)[C@@H]3O)c3[nH]ncc3c2)cc(C)n1 [Compound 83, (2R,3S,4R,5S,6R)-2-[2-[5-(2,6-dimethyl-4-pyridyl)-1H-indazol-7-yl]ethynyl]-6-(hydroxymethyl)tetrahydropyran-3,4,5-triol]	0.7 ± 0.5 nM
COc1cccc(-c2cc(C#C[C@H]3O[C@H](CO)[C@@H](O)[C@H](O)[C@@H]3O)c3[nH]ncc3c2)c1 [Compound 38, (2R,3S,4R,5S,6R)-2-(hydroxymethyl)-6-[2-[5-(3-methoxyphenyl)-1H-indazol-7-yl]ethynyl]tetrahydropyran-3,4,5-triol]	0.8 ± 0.5 nM
CC(C)(C)OC(=O)n1ccc(-c2cc(C#C[C@H]3O[C@H](CO)[C@@H](O)[C@H](O)[C@@H]3O)c3[nH]ncc3c2)c1 [Compound 72, tert-butyl 3-[7-[2-[(2R,3S,4R,5S,6R)-3,4,5-trihydroxy-6-(hydroxymethyl)tetrahydropyran-2-yl]ethynyl]-1H-indazol-5-yl]pyrrole-1-carboxylate]	7 ± 4 nM
Cc1ccc(-c2cc(C#C[C@H]3O[C@H](CO)[C@@H](O)[C@H](O)[C@@H]3O)c3[nH]ncc3c2)c(C)c1 [Compound 88, (2R,3S,4R,5S,6R)-2-[2-[5-(2,4-dimethylphenyl)-1H-indazol-7-yl]ethynyl]-6-(hydroxymethyl)tetrahydropyran-3,4,5-triol]	2 nM
Cc1cc(OCc2ccccc2)ncc1-c1cc(C#C[C@H]2O[C@H](CO)[C@@H](O)[C@H](O)[C@@H]2O)c2[nH]ncc2c1 [Compound 55, (2R,3S,4R,5S,6R)-2-[2-[5-(6-benzyloxy-4-methyl-3-pyridyl)-1H-indazol-7-yl]ethynyl]-6-(hydroxymethyl)tetrahydropyran-3,4,5-triol]	2 ± 0.05 nM
OC[C@H]1O[C@H](C#Cc2nccc3cn[nH]c23)[C@@H](O)[C@@H](O)[C@@H]1O [Compound 14, (2R,3S,4R,5S,6R)-2-(hydroxymethyl)-6-[2-(1H-pyrazolo[3,4-c]pyridin-7-yl)ethynyl]tetrahydropyran-3,4,5-triol]	350 ± 80 nM
OC[C@H]1O[C@H](C#Cc2cccc3ncoc23)[C@@H](O)[C@@H](O)[C@@H]1O [Compound 10, (2R,3S,4R,5S,6R)-2-[2-(1,3-benzoxazol-7-yl)ethynyl]-6-(hydroxymethyl)tetrahydropyran-3,4,5-triol]	217 ± 133 nM
CN(C(=O)c1cc(C#C[C@H]2O[C@H](CO)[C@@H](O)[C@H](O)[C@@H]2O)c2[nH]ncc2c1)C1CCCCC1 [Compound 60, N-cyclohexyl-N-methyl-7-[2-[(2R,3S,4R,5S,6R)-3,4,5-trihydroxy-6-(hydroxymethyl)tetrahydropyran-2-yl]ethynyl]-1H-indazole-5-carboxamide]	3 ± 2 nM
